Structures can show the parent of a compound that is named as a salt. Where two headings read alike, the source gives them in different places.
Experiments:
Swiss albino mice = assay: Plasma triglyceride lowering activity in Swiss albino mice; type: in vivo
Method: b) Plasma Triglyceride and Total Cholesterol Lowering Activity in Swiss Albino Mice and Guinea Pigs
Male Swiss albino mice (SAM) and male Guinea pigs are obtained from NIN and housed in DRF animal house. All these animals are maintained under 12 hour light and dark cycle at 25±1° C. Animals are given standard laboratory chow (NIN, Hyderabad, India) and water, ad libitum. SAM of 20-25 g body weight range and Guinea pigs of 500-700 g body weight range are used (Oliver, P., Plancke, M. O., Marzin, D., Clavey, V., Sauzieres, J and Fruchart, J. C. Effects of fenofibrate, gemfibrozil and nicotinic acid on plasma lipoprotein levels in normal and hyperlipidemic mice. Atherosclerosis. 1988. 70 : 107-114).
The test compounds can be administered orally to Swiss albino mice at 0.3 to 30 mg/kg/day dose for 6 days. Control mice are treated with vehicle (0.25% Carboxymethylcellulose; dose 10 ml/kg). The test compounds are administered orally to Guinea pigs at 0.3 to 30 mg/kg/day dose for 6 days. Control animals are treated with vehicle (0.25% Carboxymethylcellulose; dose 5 ml/kg).
The blood samples can be collected in fed state 1 hour after drug administration on 0 and 6 day of treatment. The blood can be collected from the retro-orbital sinus through heparinised capillary in EDTA containing tubes. After centrifugation, plasma sample was separated for triglyceride and total cholesterol (Wieland, O. Methods of Enzymatic analysis. Bergermeyer, H. O., Ed., 1963. 211-214; Trinder, P. Ann. Clin. Biochem. 1969. 6 : 24-27). Measurement of plasma triglyceride, total cholesterol and HDL are done using commercial kits (Dr. Reddy's Diagnostic Division, Hyderabad, India).

hPPARγ1 = biological target: T1, hPPARγ1 (Homo sapiens, UniProt P37231); assay: Determination of hPPARγ activity (GAL4-LBD luciferase reporter transactivation in HEK-293 cells); type: cell-based; settings: 1 μM compound
T1 construct: expressed in transfected cells; host or cells: HEK-293
T1 sequence (P37231 238-503 limits assumed): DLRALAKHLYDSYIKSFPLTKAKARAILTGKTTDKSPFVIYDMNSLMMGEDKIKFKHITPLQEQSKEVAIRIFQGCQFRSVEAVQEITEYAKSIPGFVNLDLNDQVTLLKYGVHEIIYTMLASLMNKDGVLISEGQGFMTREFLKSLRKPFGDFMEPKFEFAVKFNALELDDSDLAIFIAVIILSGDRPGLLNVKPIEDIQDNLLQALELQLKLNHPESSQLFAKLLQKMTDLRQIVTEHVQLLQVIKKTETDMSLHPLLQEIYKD
Method: b) Determination of hPPARγ Activity
Ligand binding domain of hPPARγ1 is fused to DNA binding domain of Yeast transcription factor GAL4 in eucaryotic expression vector. Using lipofectamine (Gibco BRL, USA) as transfecting reagent HEK-293 cells are transfected with this plasmid and a reporter plasmid harboring the luciferase gene driven by a GAL4 specific promoter. Compound can be added at 1 μM concentration after 48 hrs of transfection and incubated overnight Luciferase activity as a function of drug binding/activation capacity of PPARγ1 will be measured using Packard Luclite kit (Packard, USA) in Packard Top Count (Ivan Sadowski, Brendan Bell, Peter Broag and Melvyn Hollis. Gene. 1992. 118 : 137-141; Guide to Eukaryotic Transfections with Cationic Lipid Reagents. Life Technologies, GIBCO BRL, USA).

hPPARα = biological target: T2, hPPARα (Homo sapiens, UniProt Q07869); assay: Determination of hPPARα activity (GAL4-LBD luciferase reporter transactivation in HEK-293 cells); type: cell-based; settings: 50 μM compound
T2 construct: expressed in transfected cells; host or cells: HEK-293
T2 sequence (Q07869 239-466 limits assumed): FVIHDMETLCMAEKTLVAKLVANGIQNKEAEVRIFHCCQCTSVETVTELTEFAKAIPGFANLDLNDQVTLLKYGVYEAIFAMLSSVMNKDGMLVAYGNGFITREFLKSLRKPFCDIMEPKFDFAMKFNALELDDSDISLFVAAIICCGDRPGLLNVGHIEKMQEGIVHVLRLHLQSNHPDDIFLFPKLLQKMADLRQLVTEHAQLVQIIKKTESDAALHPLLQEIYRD
Method: a) Determination of hPPARα Activity Ligand binding domain of hPPARα was fused to […] of Yeast transcription factor GAL4 in eucaryotic expression vector. Using superfect (Qiagen, Germany) as transfecting reagent HEK-293 cells are transfected with this plasmid and a reporter plasmid harboring the luciferase gene driven by a GAL4 specific promoter. Compound can be added at different concentrations after 42 hrs of transfection and incubated overnight. Luciferase activity as a function of compound binding/activation capacity of PPARα will be measured using Packard Luclite kit (Packard, USA) in Top Count (Ivan Sadowski, Brendan Bell, Peter Broag and Melvyn Hollis. Gene. 1992. 118 : 137-141; Superfect Transfection Reagent Handbook. February 1997. Qiagen, Germany).

[1] = Swiss albino mice, 3 mg/kg/d oral, 6 days
[2] = Mus musculus, 144 h, Swiss albino mice, 3 mg/kg/d oral, 6 days, read-out: % of Reduction in Triglyceride
[3] = Mus musculus, po, 144 h, read-out: % of Reduction in Triglyceride

| Compound | melting point [°C] | other results |
| --- | --- | --- |
| 2-Methyl-2-[3-{3-(3-methanesulfonyloxyphenoxy)propyloxy}phenoxy]propanoic acid Arginine salt [Example 61] | – | % of Reduction in Triglyceride (Swiss albino mice; [1]): 51% |
| 2-Methyl-2-[3-{3-(4-methanesulfonyloxyphenoxy)propyloxy}phenoxy]propanoic acid Arginine salt [Example 66] | – | % of Reduction in Triglyceride (Swiss albino mice; [1]): 71% |
| CCOC(CCCc1ccc(NCc2ccc3cc(OS(C)(=O)=O)ccc3c2)cc1)C(=O)O (centres unmarked) (as salt: salt) [Example 46, 2-Ethoxy-5-[4-{6-methanesulfonyloxynapth-2-ylmethylamino}phenyl]pentatonic acid Arginine salt] | 118 to 120 | – |
| CCOC(Cc1ccc(NCCCn2ccc3ccccc32)cc1)C(=O)O (centres unmarked) (as salt: salt) [Example 47, 2-Ethoxy-3-[4-{3-(indol-1-yl)propylamino}phenyl]propanoic acid Arginine salt] | 130 | – |
| CO[C@@H](Cc1ccc(NCCCn2ccc3ccccc32)cc1)C(=O)O (as salt: salt) [Example 48, (S)-2-Methoxy-3-[4-{3-(indol-1-yl)propylamino}phenyl]propanoic acid Arginine salt] | 105 | – |
| CCO[C@@H](Cc1ccc(NCCCn2ccc3cc(OS(C)(=O)=O)ccc32)cc1)C(=O)O (as salt: salt) [Example 49, (S)-2-Ethoxy-3-[4-{3-(5-methanesulfonyloxyindol-1-yl)propylamino}phenyl]propanoic acid Arginine salt] | 102 to 104 | – |
| CO[C@@H](Cc1ccc(NCCCn2ccc3cc(OS(C)(=O)=O)ccc32)cc1)C(=O)O (as salt: salt) [Example 50, (S)-2-Methoxy-3-[4-{3-(5-methanesulfonyloxyindol-1-yl)propylamino}phenyl]propanoic acid Arginine salt] | 102 to 104 | – |
| CCOC(Cc1ccc(NCCCN2CCc3ccccc32)cc1)C(=O)O (centres unmarked) (as salt: salt) [Example 52, 2-Ethoxy-3-[4-{3-2,3-dihydroindol-1-yl)propylamino}phenyl]propanoic acid Arginine salt] | 130 to 132 | – |
| CCOC(Cc1ccc(NCC2CCc3cc(OS(C)(=O)=O)ccc3C2)cc1)C(=O)O (centres unmarked) (as salt: salt) [Example 53, 2-Ethoxy-3-[4-{(6-methanesulfonyloxy-1,2,3,4-tetrahydronapth-2-yl)methylamino}phenyl]propanoic acid Arginine salt] | 96 to 98 | – |
| CCOC(Cc1ccc(NCCCC2CCc3cc(OS(C)(=O)=O)ccc3C2)cc1)C(=O)O (centres unmarked) (as salt: salt) [Example 54, 2-Ethoxy-3-[4-{3-(6-methanesulfonyloxy-1,2,3,4-tetrahydronapth-2-yl)propylamino}phenyl]propanoic acid Arginine salt] | 115 to 117 | – |
| CCOC(Cc1ccc(NCCCN2CCCc3ccccc32)cc1)C(=O)O (centres unmarked) (as salt: salt) [Example 55, 2-Ethoxy-3-[4-{3-1,2,3,4-tetrahydroquinolyn-1-yl)propylamino}phenyl]propanoic acid Arginine salt] | 134 to 136 | – |
| CCOC(=O)[C@H](Cc1ccc(NCc2ccc3cc(OS(C)(=O)=O)ccc3c2)cc1)OC [Example 1, (S)-Ethyl 2-methoxy-3-[4-(6-methanesulfonyloxynapth-2-ylmethylamino)phenyl]propanoate] | 94 to 96 | PPAR fold activation, PPAR γ at 1 μM concentration (hPPARγ1): 9.2 fold; PPAR fold activation, PPAR α at 50 μM concentration (hPPARα): 2.7 fold |
| CCOC(=O)C(C)(C)Oc1ccc(NCc2ccc3cc(OS(C)(=O)=O)ccc3c2)cc1 [Example 4, Ethyl 2-methyl-2-[4-{6-methanesulfonyloxynapth-2-ylmethylamino}phenoxy]propanoate] | 116 to 118 | – |
| CC(C)(Oc1ccc(NCc2ccc3cc(OS(C)(=O)=O)ccc3c2)cc1)C(=O)O [Example 26, 2-Methyl-2-[4-(6-methanesulfonyloxynapth-2-ylmethylamino}phenoxy]propanoic acid] | 182 to 184 | inhibition in vivo at 3 mg/kg/day (Swiss albino mice; [2]): 10% |
| CC(C)(Oc1ccc(OCc2ccc3cc(OS(C)(=O)=O)ccc3c2)cc1)C(=O)O [Example 37, 2-Methyl-2-[4-{6-methanesulfonyloxynapth-2-ylmethoxy}phenoxy]propanoic acid] | 147 to 149 | inhibition in vivo at 3 mg/kg/day (Swiss albino mice; [2]): 30% |
| CC(C)(Oc1cccc(CCCOc2ccc(OS(C)(=O)=O)cc2)c1)C(=O)O [Example 42, 2-Methyl-2-[3-{3-(4-methanesulfonyloxyphenoxy)propyl}phenoxy]propanoic acid] | 93 to 95 | – |
| CCOC(CCCc1ccc(NCc2ccc3cc(OS(C)(=O)=O)ccc3c2)cc1)C(=O)O (centres unmarked) [Example 46, 2-Ethoxy-5-[4-{6-methanesulfonyloxynapth-2-ylmethylamino}phenyl]pentatonic acid Arginine salt] | – | inhibition in vivo at 10 mg/kg/day (Swiss albino mice; [3]): 12%; PPAR fold activation, PPAR γ at 1 μM concentration (hPPARγ1): 2.1 fold; PPAR fold activation, PPAR α at 50 μM concentration (hPPARα): 3.2 fold |
| CCOC(Cc1ccc(NCCCn2ccc3ccccc32)cc1)C(=O)O (centres unmarked) [Example 47, 2-Ethoxy-3-[4-{3-(indol-1-yl)propylamino}phenyl]propanoic acid Arginine salt] | – | inhibition in vivo at 3 mg/kg/day (Swiss albino mice; [3]): 60%; PPAR fold activation, PPAR γ at 1 μM concentration (hPPARγ1): 6.7 fold; PPAR fold activation, PPAR α at 50 μM concentration (hPPARα): 4.8 fold |
| CCOC(Cc1ccc(NCCCN2CCc3ccccc32)cc1)C(=O)O (centres unmarked) [Example 52, 2-Ethoxy-3-[4-{3-2,3-dihydroindol-1-yl)propylamino}phenyl]propanoic acid Arginine salt] | – | PPAR fold activation, PPAR γ at 1 μM concentration (hPPARγ1): 6 fold; PPAR fold activation, PPAR α at 50 μM concentration (hPPARα): 4.0 fold |
| CCOC(Cc1ccc(NCCCC2CCc3cc(OS(C)(=O)=O)ccc3C2)cc1)C(=O)O (centres unmarked) [Example 54, 2-Ethoxy-3-[4-{3-(6-methanesulfonyloxy-1,2,3,4-tetrahydronapth-2-yl)propylamino}phenyl]propanoic acid Arginine salt] | – | inhibition in vivo at 3 mg/kg/day (Swiss albino mice; [3]): 43% |
| CC(C)(Oc1ccc(CCCOc2ccc(-c3ccccc3)cc2)cc1)C(=O)O [Example 63, 2-{4-[3-(Biphenyl-4-yloxy)-propyl]-phenoxy}-2-methyl-propanoic acid] | 130 to 133 | – |
| CC(C)(C)OC(=O)Nc1ccc(OCCCc2ccc(OC(C)(C)C(=O)O)cc2)cc1 [Example 96, 2-Methyl-2-[4-{3-(4-(tert-butyloxycarbonylamino)phenoxy)propyl}phenoxy]propanoic acid] | 132 to 134 | – |
| CC(C)(Oc1ccc(CCCOc2ccc(NS(C)(=O)=O)cc2)cc1)C(=O)O [Example 97, 2-Methyl-2-[4-{3-(4-(methanesulfonylamino)phenoxy)propyl}phenoxy]propanoic acid] | 122 to 124 | – |

From patent US20070093476A1, “Novel compounds and their use in medicine,as antidiabetic and hypolipidemic agents, process for their preparation and pharmaceutical compositions containing them” (priority 2003, published 2007)
